{"source": "patent US7705016B2", "about": "“Regulation of food intake by modulation of long-chain fatty acyl-CoA levels in the hypothalamus” (Albert Einstein College of Medicine of Yeshiva University, priority 2003, dated 2010)", "key": {"CPT1L": {"target": "T1, CPT1L (Rattus norvegicus, UniProt P32198)", "T1 construct": "from tissue; host or cells: hypothalamus (arcuate nucleus) of male Sprague-Dawley rats, in vivo or ex vivo", "T1 sequence (P32198 1-773)": "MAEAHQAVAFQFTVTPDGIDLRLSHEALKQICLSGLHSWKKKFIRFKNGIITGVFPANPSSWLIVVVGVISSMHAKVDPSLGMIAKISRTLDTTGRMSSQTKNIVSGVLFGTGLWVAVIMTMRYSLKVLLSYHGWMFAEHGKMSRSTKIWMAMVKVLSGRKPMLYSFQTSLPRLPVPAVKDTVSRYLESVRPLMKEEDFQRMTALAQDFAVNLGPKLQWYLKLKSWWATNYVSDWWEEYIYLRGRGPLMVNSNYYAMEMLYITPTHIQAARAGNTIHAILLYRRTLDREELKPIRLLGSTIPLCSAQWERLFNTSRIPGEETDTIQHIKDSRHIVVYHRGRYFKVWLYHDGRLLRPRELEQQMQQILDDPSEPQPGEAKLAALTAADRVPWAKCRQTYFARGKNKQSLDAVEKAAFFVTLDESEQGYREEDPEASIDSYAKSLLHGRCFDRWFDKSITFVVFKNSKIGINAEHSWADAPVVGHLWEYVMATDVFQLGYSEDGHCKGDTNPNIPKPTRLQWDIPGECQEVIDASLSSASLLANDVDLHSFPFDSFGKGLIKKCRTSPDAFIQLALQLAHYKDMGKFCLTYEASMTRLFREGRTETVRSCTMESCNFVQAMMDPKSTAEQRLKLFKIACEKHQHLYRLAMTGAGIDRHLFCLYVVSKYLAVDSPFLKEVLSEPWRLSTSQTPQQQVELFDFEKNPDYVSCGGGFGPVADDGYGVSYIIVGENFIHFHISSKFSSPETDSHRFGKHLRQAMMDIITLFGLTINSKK", "experiment": "LC-CoA levels in hypothalamic nuclei by HPLC after ICV CPT1 inhibitor", "type": "in vivo", "conditions": "ICV administration", "procedure": "Surgical implantation of ICV cannulae was performed on day 1 (˜3 weeks prior to the in vivo study). Full recovery of body weight and food intake was achieved by day 7. Rats randomized for ribozyme treatment received an ICV injection of CPT1L-Ribo, CPT inhibitors or controls on day 17. The experimental group treated with TDGA received ICV injection of the inhibitor on day 21, 6 hr prior to the harvesting of brains. Panels B. and C. show quantitation of CPT1L (B) and CPT1M (C) mRNA by real-time PCR. RNA was purified from individual hypothalamic nuclei (PVN, LHA, and arcuate), which were obtained by micro punch technique 3 days after ICV injection of pTarget control (▪; N=4) or CPT1LRibo (□; N=5). Copy number of CPT1 mRNA is normalized to β-Actin copy number ×10^6. Panels D. and E. show CPT1 activity in individual arcuate nuclei (D) or whole hypothalamus (E). Brains were harvested 6 hr or 3 days […] the ICV injection of TDGA or CPT1L-Ribo respectively, and arcuate nuclei were punched out. CPT1 activity was measured in the particulate fraction of protein extracts from animals treated with ICV control injections (▪; N=6, receiving aCSF+2% DMSO or Control Ribo), TDGA ( ?; N=6), or CPTL-Ribo (□; N=5). Panels F and E establish that ICV administration of CPT1 inhibitors increases levels of LC-CoAs in arcuate. Levels of stearoyl-CoA (F) and oleyl-CoA (E) respectively were measured by HPLC in arcuate of rats injected ICV with control compound (▪; ST1340) or ST1326 (□).\nICV catheters were implanted in male Sprague-Dawley rats by stereotaxic surgery (Obici et al., 2002a; Obici et al., 2001; Liu et al., 1998). The biochemical or molecular analyses, the metabolic or the feeding experiments were performed ˜3 weeks later following complete recovery from the operation (FIG. 2a). CPT1L-Ribo was delivered ICV three days prior to experimental tests (FIG. 2a). […] Thus, we next measured CPT1 activity in ARC and in whole hypothalamus. […]"}, "Glc-6-Pase mRNA": {"system": "Glc-6-Pase mRNA", "experiment": "Hepatic Glc-6-Pase mRNA after ICV OA (northern blot)", "type": "in vivo, rat", "procedure": "Northern Blot Analysis. Total RNA was isolated from hypothalami and liver with Trizol (Invitrogen Corp., California, USA). NPY, Glc-6-Pase or PEPCK expression was measured by northern blot analysis. Hypothalamic RNA was analyzed using probes for prepro-NPY and β-actin. To assess the effect of ICV OA on the expression of hepatic enzymes, total RNA was isolated from freeze-clamped liver tissues from rats subjected to insulin clamp studies. Glc-6-Pase and PEPCK cDNA were obtained as previously described (Combs et al., 2001; Massillon et al., 1996; 1998). Probes were labeled with [α-^32P] dCTP using a random primer kit (Stratagene). Quantification was performed by scanning densitometry, normalizing for β-actin signal and 18S ribosomal RNA to correct for loading variabilities. Effect of ICV OA on the hepatic expression of Glc-6-Pase and PEPCK. The potent effects of the central administration of OA on hepatic glucose fluxes prompted us to examine whether changes in the liver mRNA levels of key metabolic enzymes can partly account for these effects. Thus, we next measured the liver abundance of Glc-6-Pase and PEPCK mRNA as a function of 18S ribosomal RNA (FIG. 9d) or β-actin mRNA (not shown) in tissue samples obtained after ICV infusion of either OA or vehicle in caloric restricted and over-fed rats. […]"}}}
{"smiles": "CCCCCCCCCCCCCCNC(=O)N[C@H](CC(=O)[O-])C[N+](C)(C)C", "note": "[ST1326, (R)-N-(tetradecylcarbamoyl)-aminocarnitine]", "values": [{"measurement": "Oleyl-CoA levels in ARC", "setting": "CPT1L", "result": "marked increase"}, {"measurement": "stearoyl-CoA levels in ARC", "setting": "CPT1L", "result": "marked increase"}, {"measurement": "Other LC-CoAs", "setting": "CPT1L; data not shown", "result": "significantly increased"}]}
{"smiles": "CCCCCCCC/C=C\\CCCCCCCC(=O)O", "note": "[OA, oleic acid]", "values": [{"measurement": "suppression of hepatic Glc-6-Pase mRNA expression", "setting": "Glc-6-Pase mRNA; HF55 group, ICV OA vs ICV vehicle", "result": "~73", "unit": "%"}, {"measurement": "hepatic Glc-6-Pase mRNA expression", "setting": "Glc-6-Pase mRNA; HF140 group", "result": "no changes detected"}]}
